Laboratory results reported in patent US20110045100A1, “Antimalarial Quinolines and Methods of Use Thereof” (GEORGETOWN UNIVERSITY, priority 2008, published 2011).

Legend:
[1] = system: monomeric heme; assay: Heme affinity measurement, monomeric heme; format: binding; details: acidic 40% DMSO
Method: To test whether binding to Hz precursors is also altered for the 4S and 4O derivatives, binding constants were measured as previously described for both μ-oxo dimeric and monomeric heme (FIG. 25). […] J. Am. Chem. Soc. 1988, 110, 4391-4395; Egan, T. J.; Mavuso, W. W.; Ross, D. C.; Marques, H. M. Thermodynamic factors controlling the interaction of quinoline antimalarial drugs with ferriprotoporphyrin IX. J. Inorg. Biochem. 1997, 68, 137-145; and Egan, T. J.; Ncokazi, K. K. Effects of solvent composition and ionic strength on the interaction of quinoline antimalarials with ferriprotoporphyrin IX. J. Inorg. Biochem. 2004, 98, 144-152. Due to the instability of monomeric heme in aqueous solution, the affinity to monomer measured by conventional absorbance experiments can only be estimated using 40% DMSO in water as solvent. Egan, T. J.; Ncokazi, K. K. Effects of solvent composition and ionic strength on the interaction of quinoline antimalarials with ferriprotoporphyrin IX. J. Inorg. Biochem. 2004, 98, 144-152. At appropriately acidic solution pH (≦5.0) FPIX heme is primarily monomeric, whereas at pH 7, appreciable dimer is formed. As shown (FIG. 25), CQ and compounds 88, 93, and 98 all have poor affinity for monomeric heme in acidic 40% DMSO. To further test if CQ interacts with monomeric heme, T1 measurements of the CQ protons were made with samples containing 10 mM CQ and 2 mM hemin chloride in 40% DMSO at pH 5.0. Although the lines are broadened in this solution due to paramagnetic susceptibility, the measured T1's indicate only weak paramagnetic relaxation. For example, the measured T1 for CQ proton 1 in this sample is 0.70 s, whereas at pH 7.0 the T1 for the same proton is 0.039 s.
To measure affinity for monomeric heme, 1.2 mM stock solutions of hemin (sodium salt from Sigma-Aldrich) were prepared in DMSO and stored as […] aliquots. 4.8 μM working solutions were prepared in 40% DMSO/phosphate buffer (fresh stocks prepared daily). Stock solutions of CQ and CQ analogues (diphosphate or dihydrochloride salts) were prepared in 40% DMSO/phosphate buffer and used for the titration experiments (all drugs dilutions were prepared in the same buffer).
1.5 mL cuvettes containing freshly prepared samples of 4.8 μM heme were titrated with increasing concentrations (0-50 μM) of drug. Following each addition, the sample was mixed and heme absorbance then recorded at 402 nm. Control experiments were performed by titrating 4.8 μM heme with similar volumes of solvent and no drug present. […] The absorbance peak analysis was done using Microsoft excel and Ka were extracted from the ΔAbs402 plots via Scatchard analysis using Microsoft Excel and Sigma plot 9.0.1 software.

[2] = system: Dd2 (chloroquine resistant strain of P. falciparum); assay: SYBR Green I antiplasmodial assay, strain Dd2; format: cell-based, Plasmodium falciparum; details: strain Dd2
From the text: Bennett T. N.; Paguio, M.; Gligorijevic, B.; Seudieu, C.; Kosar, A. D.; Davidson, E.; Roepe, P. D. Novel, rapid, and inexpensive cell-based quantification of antimalarial drug efficacy. Antimicrob. Agents Chemother. 2004, 48, 1807-1810; Smilkstein, M.; Sriwilaijaroen, N.; Kelly, J. X.; Wilairat, P.; Riscoe, M. Simple and inexpensive fluorescence-based technique for high-throughput antimalarial drug screening. Antimicrob. Agents Chemother. 2004, 48, 1803-1806; and Johnson, J. D.; Dennull, R. A.; Gerena, L.; Lopez-Sanchez, M.; Roncal, N. E.; Waters, N.C. Assessment and continued validation of the malaria SYBR green I-based fluorescence assay for use in malaria drug screening. Antimicrob. Agents Chemother. 2007, 51, 1926-1933. […] Drake, N. L.; Creech, H. J.; Garman, J. A.; Haywood, S. T.; Peck, R. M.; van Hook, J. O.; Walton, E. Synthetic antimalrials. The preparation of certain 4-aminoquinolines. J. Am. Chem. Soc. […] Trans. R. Soc. Trop. Med. Hyg. […] J. Parasitol. 1983, 69, 97-105. The selectivity index provides a quantitative measure of the antimalarial activity against CQR strains relative to that against sensitive strains and thus indicates promising drug discovery leads. […] This can be combined with the introduction of a third basic amino function which should further favor accumulation of the drug within the acidic food vacuole of the parasite.
The antiplasmodial activity of these compounds was measured versus a CQS (HB3) and a CQR (Dd2) strain using a standardized, inexpensive assay based on SYBR Green I intercalation. Bennett T. N.; Paguio, M.; Gligorijevic, B.; Seudieu, C.; Kosar, A. D.; Davidson, E.; Roepe, P. D. Antimicrob. Agents Chemother. 2004, 48, 1807-1810; Smilkstein, M.; Sriwilaijaroen, N.; Kelly, J. X.; Wilairat, P.; Riscoe, M. Antimicrob. Agents Chemother. 2004, 48, 1803-1806; and Johnson, J. D.; Dennull, R. A.; Gerena, L.; Lopez-Sanchez, M.; Roncal, N. E.; Waters, N.C. Antimicrob. Agents Chemother. 2007, 51, 1926-1933. […] De, D.; Krogstad, F. M.; Cogswell, F. B.; Krogstad, D. J. Am. J. Trop. Med. Hyg. 1996, 55, 579-583. […] The basic tertiary amino function in the side chain is commonly believed to be crucial for the accumulation of the drug within the acidic food DV.
Drug activities were assessed and IC50 were quantified essentially as described previously. Delarue, S.; Girault, S.; Maes, L.; Debreu-Fontaine, M. A.; Labaeid, M.; Grellier, P.; Sergheraert, C. Synthesis and in vitro and in vivo antimalarial activity of new 4-anilinoquinolines. J. Med. Chem. 2001, 44, 2827-2833; and O'Neill, P. M.; Willock, D. J.; Hawley, S. R.; Bray, P. G.; Storr, R. C.; Ward, S. A.; Park, B. K. Synthesis, antimalarial activity, and molecular modeling of tebuquine analogues. J. Med. Chem. 1997, 40, 437-448. The aminoquinolines were diluted using complete media under sterile conditions and plated in a 96 well plate format. Sorbitol synchronized cultures were utilized with >95% of the parasites at the ring stage. Cultures were diluted to give a working stock of 0.5% parasitemia and 2% hematocrit (final hematocrit 1% & 0.5% Parasitemia). The plates were incubated for 72 h at 37° C. After 72 h, 50 μL of 10×SYBR green I dye was added to each well, and the plate was incubated for 1 h at 37° C. Fluorescence was measured at 530 nm (490 nm excitation) using a spectra geminiEM plate reader. Data analysis was performed using sigma plot 9.0 software after downloading data in Excel format.

fold lower IC50 relative to 98 [2]: 4 fold
Structure (SMILES): CCN(CC)CCCCOc1ccnc2cc(Cl)ccc12 [compound 93, O-(7-Chloro-4-quinolyl)-4-(N,N-diethylamino)butanol]
affinity for monomeric heme [1]: poor affinity
